The values that follow come from patent US20260209226A1 (EmpathBio, Inc., priority 2023, published 2026).

“And” between values parts separate entries of the source, which are not always exact repeats. Equal entries are not always repeated. Where two headings read alike, the source gives them in different places.

Type in all cases: cell-based
Test [1] concerns the target T1, Human Norepinephrine Transporter (NET) (Homo sapiens, UniProt P23975).
T1 construct: expressed in transfected cells; host or cells: HEK cells
The experiment in a line: Human Norepinephrine Transporter (NET) Uptake Inhibition Assay ([3H]-Norepinephrine uptake in HEK cells). The note with it: HEK cells expressing recombinant NET, individual experiments separated by commas. As to the method:
Compound activity is assessed using an in vitro assay. Briefly, HEK cells expressing recombinant Norepinephrine transporter (NET) are plated at 50,000 cells/well on a 96 well plate pre-coated with Matrigel one day prior to the experiment. Culture medium (DMEM/FBS) is removed and 30 μl of assay buffer (Tris-HCl 50 mM, EDTA 4 mM, BDA 0.1%) with the desired concentration of test compound is added. The plate is incubated at 37° C. for 15 minutes. Assay buffer (30 μl) containing the same concentration of compound diluted in [^3H]-Norepinephrine uptake buffer (final concentration 20 nM) is added to each well and the plate is incubated at 37° C. for 5 minutes. The reaction mixture is removed, and the cells are washed with 100 μl ice-cold assay buffer twice. Lysis buffer (50 μl) is added to the cells followed by a 5 minute incubation with gentle shaking at room temperature. The lysate is transferred to a 96 well isoplate. Optiphase supermix (100 μl) is added to each well with complete mixing. Radioactivity is counted with Microbeta Counter and reported as CPM. Desiparmine is used as a control to measure non-specific uptake and for data normalization. Percent inhibition of [^3H]-Norepinephrine uptake calculations: 100×(1−CPMtest sample−CPMnon_specific uptake)/(CPMMAX−CPMMIN)). Test compounds were screened at 10 concentrations at half-log dilutions from a top concentration of 100 μM. IC50s were determined using the log(inhibitor) vs. normalized response—Variable slope model in GraphPad Prism 10.1.0 and are summarized in Table 3.

In test [2] the target is T2, Human Dopamine Transporter (DAT) (Homo sapiens, UniProt Q01959).
T2 construct: expressed in transfected cells; host or cells: HEK cells
T2 sequence (Q01959 whole entry): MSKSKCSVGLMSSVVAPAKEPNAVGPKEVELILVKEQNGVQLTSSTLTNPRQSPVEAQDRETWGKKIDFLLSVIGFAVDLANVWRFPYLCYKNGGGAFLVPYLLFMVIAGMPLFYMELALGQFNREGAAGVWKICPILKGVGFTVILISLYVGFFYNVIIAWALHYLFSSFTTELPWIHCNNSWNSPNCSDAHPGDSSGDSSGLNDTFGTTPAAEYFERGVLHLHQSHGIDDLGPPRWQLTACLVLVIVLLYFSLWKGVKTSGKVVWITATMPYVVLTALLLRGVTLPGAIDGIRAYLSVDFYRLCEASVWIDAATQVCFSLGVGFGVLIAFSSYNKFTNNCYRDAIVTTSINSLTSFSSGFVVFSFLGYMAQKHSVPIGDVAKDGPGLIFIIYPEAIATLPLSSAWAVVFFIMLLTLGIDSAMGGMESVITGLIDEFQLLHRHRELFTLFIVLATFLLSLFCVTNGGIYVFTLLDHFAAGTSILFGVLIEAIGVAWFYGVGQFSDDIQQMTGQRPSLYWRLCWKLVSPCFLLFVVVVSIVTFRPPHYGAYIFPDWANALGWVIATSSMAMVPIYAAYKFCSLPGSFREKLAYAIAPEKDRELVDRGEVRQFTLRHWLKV
The experiment in a line: Human Dopamine Transporter (DAT) Uptake Inhibition Assay ([3H]-Dihydroxyphenylethylamine uptake in HEK cells). The note with it: HEK cells expressing recombinant DAT, individual experiments separated by commas. As to the method: Compound activity is assessed using an in vitro assay. Briefly, HEK cells expressing recombinant dopamine transporter (DAT) are plated at 50,000 cells/well on a 96 well plate pre-coated with Matrigel one day prior to the experiment. Culture medium (DMEM/FBS) is removed and 30 μl of assay buffer (Tris-HCl 50 mM, EDTA 4 mM, BDA 0.1%) with the desired concentration of test compound is added. The plate is incubated at 37° C. for 15 minutes. Assay buffer (30 μl) containing the same concentration of compound diluted in [^3H]-Dihydroxyphenylethylamine uptake buffer (final concentration 20 nM) is added to each well and the plate is incubated at 37° C.; for 5 minutes. The reaction mixture is removed, and the cells are washed with 100 μl ice-cold assay buffer twice. Lysis buffer (50 μl) is added to the cells followed by a 5 minute incubation with gentle shaking at room temperature. The lysate is transferred to a 96 well isoplate. Optiphase supermix (100 μl) is added to each well with complete mixing. Radioactivity is counted with Microbeta Counter and reported as CPM. Nomifensine is used as a control to measure non-specific uptake and for data normalization. Percent inhibition of [^3H]-Dihydroxyphenylethylamine uptake calculations: 100×(1−(CPMtest sample−CPMnon-specific uptake)/(CPMMAX−CPMMIN)). Test compounds were screened at 10 concentrations at half-log dilutions from a top concentration of 100 μM. IC50s were determined using the log(inhibitor) vs. normalized response—Variable slope model in GraphPad Prism 10.1.0 and are summarized in Table 3.

Test [3] deals with T3, Human Serotonin Transporter (SERT) (Homo sapiens, UniProt P31645).
T3 construct: expressed in transfected cells; host or cells: HEK cells
T3 sequence (P31645 whole entry): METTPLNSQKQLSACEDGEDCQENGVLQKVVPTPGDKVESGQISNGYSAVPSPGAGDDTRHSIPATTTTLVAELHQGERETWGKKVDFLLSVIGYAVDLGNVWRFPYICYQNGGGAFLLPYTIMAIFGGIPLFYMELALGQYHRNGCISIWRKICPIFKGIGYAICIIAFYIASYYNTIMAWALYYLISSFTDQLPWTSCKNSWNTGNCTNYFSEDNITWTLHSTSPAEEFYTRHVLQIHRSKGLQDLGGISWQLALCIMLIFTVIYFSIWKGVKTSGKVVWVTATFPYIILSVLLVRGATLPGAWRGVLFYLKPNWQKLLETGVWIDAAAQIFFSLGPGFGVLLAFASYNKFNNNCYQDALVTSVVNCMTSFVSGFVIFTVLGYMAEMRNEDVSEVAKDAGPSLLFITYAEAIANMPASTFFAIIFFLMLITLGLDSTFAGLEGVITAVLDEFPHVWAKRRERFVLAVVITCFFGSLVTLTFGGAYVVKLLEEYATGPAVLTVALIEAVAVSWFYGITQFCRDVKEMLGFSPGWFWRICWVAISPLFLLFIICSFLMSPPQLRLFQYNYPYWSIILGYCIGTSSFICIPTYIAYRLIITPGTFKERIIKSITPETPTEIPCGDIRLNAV
The experiment in a line: Human Serotonin Transporter (SERT) Uptake Inhibition Assay ([3H]-Serotonin uptake in HEK cells). Particulars: HEK cells expressing recombinant SERT, individual experiments separated by commas; for SERT UPTAKE INHIBITION (%) @100 uM: 100 uM test compound; for inhibition at 1 µM: HEK293, 1 uM test compound; for inhibition at 10 µM: HEK293, 10 uM test compound; for inhibition at 100 µM: HEK293, 100 uM test compound; for SERT UPTAKE INHIBITION (%) @1 uM: 1 uM test compound. The protocol:
Compound activity is assessed using an in vitro assay. Briefly, HEK cells expressing recombinant serotonin transporter (SERT) are plated at 50,000 cells/well on a 96 well plate pre-coated with Matrigel one day prior to the experiment. Culture medium (DMEM/FBS) is removed and 30 μl of assay buffer (Tris-HCl 50 mM, EDTA 4 mM, BDA 0.1%) with the desired concentration of test compound is added. The plate is incubated at 37° C. for 15 minutes. Assay buffer (30 μl) containing the same concentration of compound diluted in [^3H]-Serotonin uptake buffer (final concentration 10 nM) is added to each well and the plate is incubated at 37° C. for 5 minutes. The reaction mixture is removed, and the cells are washed with 100 μl ice-cold assay buffer twice. Lysis buffer (50 μl) is added to the cells followed by a 5 minute incubation with gentle shaking at room temperature. The lysate is transferred to a 96 well isoplate. Optiphase supermix (100 μl) is added to each well with complete mixing. Radioactivity is counted with Microbeta Counter and reported as counts per minute (CPM). Fluoxetine is used as a control to measure non-specific uptake and for data normalization. Percent inhibition of [^3H]-Serotonin uptake calculations: 100×(1−(CPMtest sample−CPMnon_specific uptake)/(CPMMAX−CPMMIN)) are summarized in Table 2. Subsequent experiments using the same assay were performed with select compounds with a greater range of concentrations (10 half-log dilutions from a top concentration of 100 μM), allowing for the determination of IC50s. IC50s were determined using the log(inhibitor) vs. normalized response—Variable slope model in GraphPad Prism 10.1.0 and are summarized in Table 3.

The mark [4] stands for this setting: 10 half-log dilutions from 100 μM, read-out: NET Uptake Inhibition IC50.
Where [5] appears, read: 10 half-log dilutions from 100 μM, read-out: DAT Uptake Inhibition IC50.
Where [6] appears, read: 10 half-log dilutions from 100 μM, read-out: SERT Uptake Inhibition IC50.

T1 sequence (P23975 whole entry): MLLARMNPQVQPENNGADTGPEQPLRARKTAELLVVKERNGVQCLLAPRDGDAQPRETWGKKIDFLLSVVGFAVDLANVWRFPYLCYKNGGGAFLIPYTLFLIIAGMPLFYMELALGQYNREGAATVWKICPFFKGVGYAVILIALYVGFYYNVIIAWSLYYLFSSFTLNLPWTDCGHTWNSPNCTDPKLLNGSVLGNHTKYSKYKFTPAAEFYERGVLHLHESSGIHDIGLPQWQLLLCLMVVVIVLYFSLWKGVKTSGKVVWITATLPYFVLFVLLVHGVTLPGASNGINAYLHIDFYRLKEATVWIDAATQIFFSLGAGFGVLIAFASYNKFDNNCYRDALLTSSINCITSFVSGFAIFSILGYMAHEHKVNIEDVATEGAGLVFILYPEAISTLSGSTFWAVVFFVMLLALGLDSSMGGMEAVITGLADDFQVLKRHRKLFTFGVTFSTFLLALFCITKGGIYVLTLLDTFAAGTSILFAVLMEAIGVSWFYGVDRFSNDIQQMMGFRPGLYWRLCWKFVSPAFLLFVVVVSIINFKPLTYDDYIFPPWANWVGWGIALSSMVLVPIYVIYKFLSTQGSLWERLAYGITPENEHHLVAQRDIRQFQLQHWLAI

As for `CNC(C)Cc1ccc2scnc2c1` (stereo not drawn) [Compound 4], the half-inhibitory concentration (IC50) in test [1] (setting [4]) came to 8.3 µM. For the same compound, the IC50 in test [2] (setting [5]) was 35.8 µM. Further, in test [3], the “SERT UPTAKE INHIBITION (%) @100 uM” value came to 87.43%, the inhibition at 1 µM stood at 20.2%, the inhibition at 10 µM is 61.8% and the inhibition at 100 µM worked out at 91.5%. Further, the IC50 in test [3] (setting [6]) stood at 11.3 µM.
Consider `CC(N)Cc1ccc2ncsc2c1` (stereo not drawn) [Compound 6], for which the IC50 in test [1] (setting [4]) was 1.1 µM. For the same compound, the IC50 in test [2] (setting [5]) was over 100 µM. Besides, in test [3], the “SERT UPTAKE INHIBITION (%) @1 uM” value is 51.1% and 4.94%; the “SERT UPTAKE INHIBITION (%) @100 uM” value amounted to 96.89%; the inhibition at 100 µM was determined as 94.6%. Besides, the IC50 in test [3] (setting [6]) amounted to 7.5 µM.
In the case of `CC(N)Cc1ccn2ccnc2c1` (stereo not drawn) [Compound 5], in test [3], the inhibition at 1 µM is -0.48% and the inhibition at 100 µM worked out at 90.2%.
Consider `CNC(C)Cc1ccc2ncsc2c1` (stereo not drawn) [Compound 2], for which the IC50 in test [1] (setting [4]) worked out at 4.7 µM. Besides, the IC50 in test [2] (setting [5]) worked out at 21.8 µM. In test [3], the “SERT UPTAKE INHIBITION (%) @1 uM” value was 43.44% and −5.16%; the “SERT UPTAKE INHIBITION (%) @100 uM” value is 93.94% and 91.08%; the inhibition at 10 µM came out at 67.9%; the inhibition at 100 µM is 88.8%. For the same compound, the IC50 in test [3] (setting [6]) was 10.3 µM.
Turning to `C[C@@H](N)Cc1ccc2ncsc2c1` [Compound 15, (R)-1-(benzo[d]thiazol-6-yl)propan-2-amine], in test [3], the inhibition at 10 µM amounted to 38% and the inhibition at 100 µM was determined as 97.5%.
For `CC(N)Cc1ccc2ncnn2c1` (stereo not drawn) [Compound 13], in test [3], the inhibition at 10 µM came to 1.34% and the inhibition at 100 µM came out at 73.1%.
For the compound `CNC(C)Cc1ccc2c(c1)OCO2` (stereo not drawn) [18 MDMA, 3,4-methylenedioxymethamphetamine, reference compound], the IC50 in test [1] (NET Uptake Inhibition IC50, 10 half-log dilutions from 100 μM) was 1.4 µM and 2.37 µM and 0.93 µM and 1.34 µM and 2.27 µM and 2.89 µM; in test [2] (setting [5]) it was 5.29 µM; in test [2] (DAT Uptake Inhibition IC50, 10 half-log dilutions from 100 μM), 3.5 µM and 5.48 µM and 7.48 µM and 10.3 µM and 13.5 µM; in test [3] (SERT Uptake Inhibition IC50, 10 half-log dilutions from 100 μM), 5.25 µM and 5.08 µM and 3.19 µM and 1.48 µM and 2.07 µM and 2.21 µM. For the same compound, the “SERT UPTAKE INHIBITION (%) @1 uM” value in test [3] is 25.0% and −1.67%. In test [3] (10 uM test compound, 10 µM), the “SERT UPTAKE INHIBITION (%) @10 uM” value is 70.1%. Also, the “SERT UPTAKE INHIBITION (%) @100 uM” value in test [3] is 88.7% and 98.0% and 86.2%. Further, in test [3], the inhibition at 10 µM was found to be 53.3%. Further, the inhibition at 100 µM in test [3] was found to be 85.1%.
For the compound `CN[C@@H](C)Cc1ccc2ncsc2c1` [Compound 16, (S)-1-(benzo[d]thiazol-6-yl)-N-methylpropan-2-amine], the IC50 in test [1] (setting [4]) was 4.2 µM; in test [2] (setting [5]) it was over 100 µM; in test [3] (setting [6]), 5.1 µM. The inhibition at 10 µM in test [3] was 57.7%. The inhibition at 100 µM in test [3] worked out at 99.1%.
`CC(N)Cc1ccc2conc2c1` (stereo not drawn) [Compound 11, 1-(2,1-benzoxazol-6-yl) propan-2-amine]: in test [3], the inhibition at 10 µM is 45.5% and the inhibition at 100 µM turned out to be 96.6%.
With `CC(N)Cc1ccc2scnc2c1` (stereo not drawn) [Compound 8], in test [1] (setting [4]), the IC50 was over 100 µM. Besides, the IC50 in test [2] (setting [5]) was 20.7 µM. In test [3], the “SERT UPTAKE INHIBITION (%) @100 uM” value was 90.93%, the inhibition at 1 µM was determined as 24%, the inhibition at 10 µM stood at 68.7% and the inhibition at 100 µM was 82.4%. In addition, the IC50 in test [3] (setting [6]) turned out to be 11.5 µM.
Take `CNC(C)Cc1ccc2conc2c1` (stereo not drawn) [Compound 10, [1-(2,1-benzoxazol-6-yl)propan-2-yl](methyl)amine]: in test [3], the inhibition at 10 µM is 48.3% and the inhibition at 100 µM worked out at 96.8%.
On to `CN[C@H](C)Cc1ccc2ncsc2c1` [Compound 17, (R)-1-(benzo[d]thiazol-6-yl)-N-methylpropan-2-amine], for which, in test [3], the inhibition at 10 µM came out at 32.5% and the inhibition at 100 µM stood at 95.7%.
Regarding `CC(N)Cc1ccc2ncoc2c1` (stereo not drawn) [Compound 9, 1-(benzo[d]oxazol-6-yl)propan-2-amine], in test [3], the inhibition at 10 µM was -2.39% and the inhibition at 100 µM amounted to 87.9%.
As to `C[C@H](N)Cc1ccc2ncsc2c1` [Compound 14, (S)-1-(benzo[d]thiazol-6-yl)propan-2-amine], the IC50 in test [1] (setting [4]) was 5.8 µM; in test [2] (setting [5]) it was over 100 µM; in test [3] (setting [6]), 6.6 µM. For the same compound, the inhibition at 10 µM in test [3] is 46.6%. In test [3], the inhibition at 100 µM was 98.9%.
As to `CNC(C)Cc1ccn2ccnc2c1` (stereo not drawn) [Compound 1], in test [3], the inhibition at 1 µM worked out at 3.6% and the inhibition at 100 µM amounted to 91.6%.
For the compound `CNC(C)Cc1ccc2ncnn2c1` (stereo not drawn) [Compound 12, methyl(1-{[1,2,4]triazolo[1,5-a]pyridin-6-yl}propan-2-yl)amine], in test [3], the inhibition at 10 µM worked out at 0.25% and the inhibition at 100 µM was 83.2%.
Take `CC(N)Cc1ccn2ncnc2c1` (stereo not drawn) [Compound 7]: in test [3], the “SERT UPTAKE INHIBITION (%) @1 uM” value was 11.89% and −1.06%; the “SERT UPTAKE INHIBITION (%) @100 uM” value was 84.23% and 59.35%.
Regarding `CNC(C)Cc1ccn2ncnc2c1` (stereo not drawn) [Compound 3], in test [3], the “SERT UPTAKE INHIBITION (%) @1 uM” value was −1.21% and −1.77%; the “SERT UPTAKE INHIBITION (%) @100 uM” value is on record as 69.13%; the inhibition at 100 µM was found to be 78.4%.
